Experimental data as given in a compilation of properties of binary mixtures (doi:10.1016/j.molliq.2012.10.026).

Assay: xn = mol fraction of the nth substance listed
Conditions: 101 kPa, x1 = 0.5

O=C1CCCCCN1 + CCCC[N+](CCCC)(CCCC)CCCC.[Cl-]
Conditions	electrical conductivity [S/m]
293.15 K	0.0409
295.65 K	0.0459
298.15 K	0.0554
300.65 K	0.0726
303.15 K	0.0934
305.65 K	0.116
308.15 K	0.142
310.65 K	0.172
318.15 K	0.31
320.65 K	0.368
323.15 K	0.431
325.65 K	0.49
330.65 K	0.61
333.15 K	0.707
